Measured values: the NIST ThermoML archive (doi:10.1016/j.jct.2013.08.019)
Several values for one entry are separate records, joined by “and”; a condition that tells them apart may be missing. Identical values can stand only once. ± gives the expanded uncertainty stated by the source.

Columns and labels:
[1] = Molar enthalpy of transition or fusion; conditions: DSC
[2] = DTA; for Triple point temperature: Crystal 2

Structure (SMILES)	Molar enthalpy of transition or fusion ([1]; Crystal)	Normal melting temperature ([2]; Crystal)	Molar enthalpy of transition or fusion ([1]; Crystal 2)	Normal melting temperature ([2]; Crystal 1)	Triple point temperature [2]
OCCCCCCO [1,6-hexanediol]	6.31 ± 0.143 kcal/mol	41.6 ± 0.6 °C	–	–	–
OCCCCCCCO [1,7-heptanediol]	6.29 ± 0.215 kcal/mol	17.4 ± 4 °C	–	–	–
OCCCCCCCCO [1,8-octanediol]	8.68 ± 0.191 kcal/mol	58.5 ± 0.6 °C	–	–	–
OCCCCCCCCCO [1,9-nonanediol]	8.77 ± 0.191 kcal/mol	45.6 ± 0.6 °C	–	–	–
OCCCCCCCCCCO [1,10-decanediol]	10.8 ± 0.239 kcal/mol	72.7 ± 0.7 °C	–	–	–
OCCCCCCCCCCCO [1,11-undecanediol]	11 ± 0.239 kcal/mol	61.0 ± 0.6 °C	–	–	–
OCCCCCCCCCCCCO [1,12-dihydroxydodecane]	13 ± 0.263 kcal/mol	79.8 ± 0.7 °C	–	–	–
OCCCCCCCCCCCCCO [1,13-tridecanediol]	–	–	13.1 ± 0.287 kcal/mol	77.2 ± 0.7 °C	339.3 ± 0.7 K
OCCCCCCCCCCCCCCO [1,14-tetradecanediol]	15.2 ± 0.311 kcal/mol	86.1 ± 0.7 °C	–	–	–
OCCCCCCCCCCCCCCCO [1,15-pentadecanediol]	–	–	15.6 kcal/mol and 9.15 kcal/mol	88.1 ± 0.7 °C	349 ± 0.7 K
OCCCCCCCCCCCCCCCCO [1,16-dihydroxyhexadecane]	–	–	17.4 ± 0.359 kcal/mol	93 ± 0.7 °C	364.1 ± 0.7 K
